Patent US20130122541A1, “MICROORGANISM PRODUCTION OF HIGH-VALUE CHEMICAL PRODUCTS, AND RELATED COMPOSITIONS, METHODS AND SYSTEMS” (The Regents of the University of Colorado, priority 2010, published 2013)
Where two headings read alike, the source gives them in different places.

What was measured:
E. coli = test: microbe, parasite or virus in culture; format: cell-based; settings: aerobic
Procedure: For MIC evaluations, the final results are expressed in chemical agent concentrations determined by analysis of the stock solution by HPLC (i.e., see Subsection IIIb).
The minimum inhibitory concentration (MIC) was determined aerobically in a 96 well-plate format. […] Media supplements were added according to levels reported in the Supplements Table, where specified. Overnight cultures of strains were grown in triplicate in 5 mL LB (with antibiotic where appropriate). A 1% (v/v) inoculum was introduced into a 5 ml culture of M9 minimal media.

C. necator (R. eutropha) = test: MIC evaluation of 3-HP, C. necator (R. eutropha) aerobic, FGN media, 96 well-plate, 24 h (Common Methods); format: cell-based; settings: for % Increase Over Control: supplements none, vs control, aerobic
Procedure: For MIC evaluations, the final results are expressed in chemical agent concentrations determined by analysis of the stock solution by HPLC (i.e., see Subsection IIIb). The minimum inhibitory concentration (MIC) was determined aerobically in a 96 well-plate format. […] Media supplements were added according to levels reported in Supplements Table, where specified. Overnight cultures of strains were grown in triplicate in 5 mL LB (with antibiotic where appropriate). […] The cells were further diluted 1:50 and a 10 μL aliquot was used to inoculate each well of a 96 well plate (˜10^4 cells per well) to total volume of 100 uL. […] Plates were incubated for 24 hours at 30 C.

[1] = 3-HP preparation: neutralisation of commercial 3-HP to pH 7.0, observation of insoluble matter; format: physicochemical
Source text: (§1) 3-HP was obtained from TCI America (Portland, Oreg.). Significant acrylic acid and 2-oxydipropionic contamination was observed via HPLC analysis. Samples were subsequently treated by diethyl ether extraction to remove acrylic acid and a portion of the 2-oxydipropionic contaminants. Samples were then neutralized with 10 M NaOH to a final pH of 7.0. […] The working stock solution was used for the selection and MIC evaluations in this example.
as §1, with “selection, growth rates” for “selection”

E. coli K12 = test: microbe, parasite or virus in culture; settings: Escherichia coli, K12, 24 h

O=C(O)CCO [3-HP, 3-hydroxypropionic acid]
30 mg/mL: MIC (E. coli K12; read-out: Minimum inhibitory concentration (MIC) of 3-HP for E. coli K12 in M9 minimal media)
60 g/L: MIC (C. necator (R. eutropha); read-out: average MIC Assay Result (g/L 3-HP), C. necator DSM 542, EZ Rich media, supplements none, aerobic)
200%: % Increase Over Control (C. necator (R. eutropha); C. necator DSM 542, EZ Rich media)
~35 mg/mL: solubility ([1]; pH 7, aqueous buffer)
20%: % Increase Over Control (E. coli; strain BX_00313.0 (pSmart-LC-Kan-folD)) | % Increase Over Control (E. coli; strain BX_00356.0 (pSmart-HC-Amp-LysA)) | % Increase Over Control (E. coli; strain BX_00362.0 (pACYC177 (Kan only)-aroH)) | % Increase Over Control (E. coli; strain BX_00368.0 (pBT-3-cynTS)) | % Increase Over Control (E. coli; strain BX_00370.0 (pBT-3-speB))
approximately 35 g/L: 3-HP concentration in excess of which considerable 3-HP polymerization was observed at neutral pH ([1]; commercial 3-HP (TCI America), ether extracted, neutralized with 10 M NaOH to pH 7.0)
75%: % Increase Over Control (E. coli; strain BX_00321.0 (pK223-ct-his-thrA)) | % Increase Over Control (E. coli; strain BX_00358.0 (pKK223-aroH*447)) | % Increase Over Control (E. coli; strain BX_00359.0 (pKK223-aroH*457))
60%: % Increase Over Control (E. coli; strain BX_00334.0 (pSmart-HC-Amp-cadA))
15 g/L: MIC (C. necator (R. eutropha); read-out: average MIC Assay Result (g/L 3-HP), C. necator DSM428, FGN media, supplements none (control), aerobic) | MIC (C. necator (R. eutropha); read-out: average MIC Assay Result (g/L 3-HP), C. necator DSM 542, FGN media, supplements none, aerobic)
80%: % Increase Over Control (E. coli; strain BX_00353.0 (pSmart-HC-Amp-metC)) | % Increase Over Control (E. coli; strain BX_00354.0 (pSmart-HC-Amp-cynTS))
40%: % Increase Over Control (E. coli; strain BX_00305.0 (pSmart-LC-Kan-pheA-C1)) | % Increase Over Control (E. coli; strain BX_00307.0 (pSmart-LC-Kan-tyrA-C1)) | % Increase Over Control (E. coli; strain BX_00309.0 (pSmart-LC-Kan-cynTS)) | % Increase Over Control (E. coli; strain BX_00310.0 (pSmart-LC-Kan-glyA)) | % Increase Over Control (E. coli; strain BX_00312.0 (pSmart-LC-Kan-serA)) | % Increase Over Control (E. coli; strain BX_00314.0 (pSmart-LC-Kan-aroE)) | % Increase Over Control (E. coli; strain BX_00315.0 (pSmart-LC-Kan-aroKB C1)) | % Increase Over Control (E. coli; strain BX_00317.0 (pSmart-LC-Kan-ilvA operon)) | % Increase Over Control (E. coli; strain BX_00318.0 (pSmart-LC-Kan-cysM)) | % Increase Over Control (E. coli; strain BX_00322.0 (pJ61-speFED)) | % Increase Over Control (E. coli; strain BX_00323.0 (pJ61-aroG)) | % Increase Over Control (E. coli; strain BX_00324.0 (pJ61-thrA)) | % Increase Over Control (E. coli; strain BX_00325.0 (pJ61-asd)) | % Increase Over Control (E. coli; strain BX_00326.0 (pJ61-ilvA)) | % Increase Over Control (E. coli; strain BX_00327.0 (pJ61-cysM)) | % Increase Over Control (E. coli; strain BX_00335.0 (pSmart-HC-Amp-prs)) | % Increase Over Control (E. coli; strain BX_00336.0 (pSmart-HC-Amp-nrdAB)) | % Increase Over Control (E. coli; strain BX_00337.0 (pSmart-HC-Amp-nrdEF)) | % Increase Over Control (E. coli; strain BX_00352.0 (pSmart-LC-Kan-metC C1)) | % Increase Over Control (E. coli; strain BX_00361.0 (pACYC177 (Kan only)-cynTS)) | % Increase Over Control (E. coli; strain BX_00363.0 (pACYC177 (kan only)-speB)) | % Increase Over Control (E. coli; strain BX_00364.0 (pACYC177 (Kan only)-metE)) | % Increase Over Control (E. coli; strain BX_00365.0 (pACYC177 (Kan only)-metC))
20 mg/mL: MIC (E. coli K12; read-out: Minimum inhibitory concentration (MIC) for E. coli K12 in 100 g/L stock solution 3-HP (control))
50%: % Increase Over Control (E. coli; strain BX_00319.0 (pK223-aroH)) | % Increase Over Control (E. coli; strain BX_00357.0 (pKK223-aroH*445))
0%: % Increase Over Control (C. necator (R. eutropha); C. necator DSM 542, FGN media)
